The record followed here is patent publication US11001590B2, “Pyrazolopyrimidine derivatives” (BAYER ANIMAL HEALTH GMBH, priority 2016, dated 2021).

Series [1] in a line: log P by HPLC on reversed phase columns (Method L0; [a] acidic, [b] neutral range). Conditions: for logP (Method L0) [a]: HPLC on reversed phase columns, Method L0, [a] acidic range; for log P: HPLC on reversed phase columns (Method L0).
Description: Calibration was done with straight-chain alkan-2-ones (with 3 to 16 carbon atoms) with known log P values (measurement of log P values using retention times with linear interpolation between successive alkanones). Lambda-max-values were determined using UV-spectra from 200 nm to 400 nm and the peak values of the chromatographic signals.
In a further series the target is C. elegans Slo-1a (Caenorhabditis elegans, UniProt Q95V25). Description: In vitro assay 1: C. elegans Slo-1a, action at a recombinant C. elegans CHO cell line (membrane potential measurement). The note with it: for pE50: CHO cells expressing C. elegans Slo-1a, voltage sensitive dye, FLIPR Tetra, negative decadic logarithm of EC50.
Chain of C. elegans Slo-1a (Q95V25 whole entry): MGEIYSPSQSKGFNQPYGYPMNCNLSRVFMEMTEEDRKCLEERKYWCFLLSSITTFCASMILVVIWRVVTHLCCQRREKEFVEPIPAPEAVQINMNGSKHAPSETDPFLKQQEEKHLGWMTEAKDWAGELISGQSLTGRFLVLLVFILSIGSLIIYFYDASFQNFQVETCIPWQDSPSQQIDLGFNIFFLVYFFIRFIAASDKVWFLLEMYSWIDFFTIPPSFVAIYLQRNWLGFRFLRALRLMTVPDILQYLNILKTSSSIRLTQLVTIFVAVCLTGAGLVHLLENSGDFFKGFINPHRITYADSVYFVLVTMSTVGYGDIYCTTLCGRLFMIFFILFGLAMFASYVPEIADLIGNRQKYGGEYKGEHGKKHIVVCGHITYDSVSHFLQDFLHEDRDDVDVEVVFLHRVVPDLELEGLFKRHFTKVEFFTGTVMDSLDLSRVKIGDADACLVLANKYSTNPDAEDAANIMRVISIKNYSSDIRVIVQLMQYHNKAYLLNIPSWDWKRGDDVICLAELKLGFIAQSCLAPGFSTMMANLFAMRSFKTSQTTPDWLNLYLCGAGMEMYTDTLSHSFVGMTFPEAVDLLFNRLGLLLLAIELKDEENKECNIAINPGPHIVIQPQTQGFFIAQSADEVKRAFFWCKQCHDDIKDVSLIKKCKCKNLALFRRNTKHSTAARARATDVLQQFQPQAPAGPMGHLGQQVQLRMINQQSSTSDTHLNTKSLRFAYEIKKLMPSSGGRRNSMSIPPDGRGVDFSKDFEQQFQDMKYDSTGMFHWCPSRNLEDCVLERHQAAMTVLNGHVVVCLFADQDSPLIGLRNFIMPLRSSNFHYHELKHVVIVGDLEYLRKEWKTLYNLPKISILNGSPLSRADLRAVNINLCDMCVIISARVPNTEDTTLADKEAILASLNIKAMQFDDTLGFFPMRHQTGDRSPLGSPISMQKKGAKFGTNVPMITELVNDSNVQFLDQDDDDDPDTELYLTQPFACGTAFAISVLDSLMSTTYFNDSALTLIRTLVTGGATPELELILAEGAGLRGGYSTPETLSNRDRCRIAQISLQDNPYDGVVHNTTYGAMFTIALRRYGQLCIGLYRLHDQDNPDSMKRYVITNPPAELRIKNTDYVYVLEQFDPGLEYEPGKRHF

As a reminder, the chromatographic logP is a lipophilicity value derived from retention on a column. One may read the EC50 as the concentration at which the effect is half-maximal. For the molecule `Cc1nn2c(C)c(C(=O)N[C@H]3CCc4ccccc43)cnc2c1-c1cccc(Cl)c1` [Example 59], the chromatographic logP in series [1] was 4.12. Also, the EC50 on C. elegans Slo-1a is 79.4 nM.
For `Cc1nn2c(C)c(C(=O)N[C@H]3CCc4ccccc43)cnc2c1-c1cc(Cl)cc(Cl)c1` [Example 60], the chromatographic logP in series [1] is 4.96. The concentration for a half-maximal effect (EC50) at C. elegans Slo-1a is 7940 nM.
`Cc1nn2c(C)c(C(=O)N[C@H]3CCCc4ccccc43)cnc2c1-c1cc(Cl)cc(Cl)c1` [Example 61] showed a chromatographic logP in series [1] of 5.29. Moreover, the half-maximal effective concentration (EC50) on C. elegans Slo-1a is 6310 nM.
In the same order, the values of `Cc1nn2cc(C(=O)N[C@H]3CCc4ccccc43)cnc2c1-c1ccccc1Cl` [Example 62] are 3.52 and 2000 nM.
On to `CC(C)c1c(C(=O)N[C@H]2CCc3ccccc32)cnc2c(-c3cccc(C(F)(F)F)c3)c(Cl)nn12` [Example 70], for which the chromatographic logP in series [1] is 5.55. In addition, the EC50 at C. elegans Slo-1a is 31.6 nM.
Taken in the same sequence, the figures for `CC(C)c1c(C(=O)N[C@H]2CCCc3ccccc32)cnc2c(-c3cccc(C(F)(F)F)c3)c(Cl)nn12` [Example 72] were 5.85 and 79.4 nM.
Taken in the same sequence, the figures for `CC(C)c1c(C(=O)N[C@H]2CCc3ccccc32)cnc2c(-c3ccc(Cl)cc3)c(Cl)nn12` [Example 73] were 5.47 and 158 nM.
Taken in the same sequence, the figures for `Cc1c(C(=O)N[C@H]2CCc3ccccc32)cnc2c(-c3ccccc3Cl)c(C(F)(F)F)nn12` [Example 81] were 4.24 and 398 nM.
Molecule `CC(C)c1c(C(=O)N[C@H]2CCc3ccccc32)cnc2c(-c3ccccc3Cl)c(C(F)(F)F)nn12` [Example 88] yielded a chromatographic logP in series [1] of 4.96. In addition, at C. elegans Slo-1a, the concentration for a half-maximal effect (EC50) was 79.4 nM.
Taken in the same sequence, the figures for `CC(C)c1c(C(=O)N[C@H]2CCCc3ccccc32)cnc2c(-c3ccccc3Cl)c(C(F)(F)F)nn12` [Example 89] were 5.24 and 631 nM.
Taken in the same sequence, the figures for `CC(C)c1c(C(=O)N[C@H]2CCc3ccccc32)cnc2c(-c3cccc(C(F)(F)F)c3)c(C(F)(F)F)nn12` [Example 91] were 5.51 and 63.1 nM.
Regarding `Cc1nn2c(C(C)C)c(C(=O)N[C@H]3CCOc4ccc(Cl)cc43)cnc2c1-c1ccccc1F` [Example 93], in series [1], the “logP (Method L0) [a]” value came to 4.67. In addition, on C. elegans Slo-1a, the pE50 is 7.
Taken in the same sequence, the figures for `Cc1nn2c(C(C)C)c(C(=O)N[C@H]3CCOc4ccc(Cl)cc43)cnc2c1-c1c(F)cccc1F` [Example 97] were 4.61 and 7.2.
In the same order, the values of `Cc1nn2c(C(C)C)c(C(=O)N[C@H]3CCOc4ccc(Cl)cc43)cnc2c1-c1ccc(F)c(F)c1` [Example 101] are 5.03 and 6.6.
Take `Cc1nn2c(C(C)C)c(C(=O)N[C@H]3CCOc4ccc(Cl)cc43)cnc2c1-c1ccccc1Cl` [Example 104]: the “logP (Method L0) [a]” value in series [1] is on record as 4.87. At C. elegans Slo-1a, the pE50 amounted to 7.
As to `Cc1nn2c(C(C)C)c(C(=O)N[C@H]3CCOc4ccc(Cl)cc43)cnc2c1-c1cccc(Cl)c1` [Example 105], the “logP (Method L0) [a]” value in series [1] came to 5.36. Also, the pE50 at C. elegans Slo-1a was 6.8.
Taken in the same sequence, the figures for `Cc1ccc2c(c1)[C@@H](NC(=O)c1cnc3c(-c4c(F)cccc4F)c(C)nn3c1C(C)C)CCC2` [Example 108] were 5.09 and 7.3.
Taken in the same sequence, the figures for `Cc1ccc2c(c1)[C@@H](NC(=O)c1cnc3c(-c4ccccc4F)c(C)nn3c1C(C)C)CCC2` [Example 110] were 5.16 and 6.7.
Turning to `Cc1ccc2c(c1)[C@@H](NC(=O)c1cnc3c(-c4ccccc4Cl)c(C)nn3c1C(C)C)CCC2` [Example 111], the “logP (Method L0) [a]” value in series [1] is on record as 5.37. In addition, the pE50 at C. elegans Slo-1a is reported as 7.2.
Taken in the same sequence, the figures for `Cc1nn2c(C(C)C)c(C(=O)N[C@H]3CCOc4ccc(Cl)cc43)cnc2c1-c1cc(F)ccc1F` [Example 114] were 4.82 and 6.9.
In the same order, the values of `Cc1nn2c(C(C)C)c(C(=O)N[C@H]3CCCc4ccccc43)cnc2c1-c1ccc(Cl)c(C(=O)NC2CC2)c1` [Example 119] are 4.07 and 5.5.
Consider `Cc1nn2c(C(C)C)c(C(=O)N[C@H]3CCc4ccccc43)cnc2c1-c1ccc2c(c1)OC(F)(F)O2` [Example 123], for which, in series [1], the chromatographic logP is 5.25. For the same molecule, the EC50 at C. elegans Slo-1a is 10 nM.
Taken in the same sequence, the figures for `Cc1nn2c(C(C)C)c(C(=O)N[C@H]3CCCc4ccccc43)cnc2c1-c1cc(Cl)cc(C(F)(F)F)c1` [Example 124] were 6.36 and 7.94 nM.
In turn, `Cc1nn2c(C(C)C)c(C(=O)N[C@H]3CCCc4ccccc43)cnc2c1-c1ccc(C(C)C)cc1` [Example 126] had a chromatographic logP in series [1] of 6.01. Moreover, the half-maximal effective concentration (EC50) at C. elegans Slo-1a was 200 nM.
As for `CC(C)c1c(C(=O)N[C@H]2CCc3ccccc32)cnc2c(-c3cc(Cl)cc(Cl)c3)c(C(F)(F)F)nn12` [Example 167], the chromatographic logP in series [1] stood at 6.06. For the same molecule, at C. elegans Slo-1a, the 50% effective concentration (EC50) was 39.8 nM.
As to `Cc1nn2c(C(C)C)c(C(=O)N[C@H]3CCOc4ccccc43)cnc2c1-c1ccc(C(F)(F)F)c(F)c1` [Example 187], the “logP (Method L0) [a]” value in series [1] came out at 4.85. For the same molecule, the pE50 on C. elegans Slo-1a was determined as 7.9.
Broadly, the log P is the decadic logarithm of the partition coefficient of the neutral form, usually between octanol and water. A low value points to a more hydrophilic compound. `Cc1nn2c(C(C)C)c(C(=O)N[C@H]3CCOc4ccccc43)cnc2c1-c1cccc(OC(F)(F)F)c1F` [Example 215]: the log partition coefficient (log P) in series [1] was determined as 5.02. In addition, the pE50 at C. elegans Slo-1a was found to be 9.1.
Taken in the same sequence, the figures for `COc1c(Cl)ccc(-c2c(C)nn3c(C(C)C)c(C(=O)N[C@H]4CCOc5ccccc54)cnc23)c1F` [Example 216] were 4.74 and 9.1.
Taken in the same sequence, the figures for `Cc1nn2c(C(C)C)c(C(=O)N[C@H]3CCOc4ccccc43)cnc2c1-c1ccc(Cl)c(Cl)c1` [Example 230] were 5.48 and 8.1.
Consider `COc1ccc(F)c(-c2c(C)nn3c(C(C)C)c(C(=O)N[C@H]4CCOc5ccccc54)cnc23)c1Cl` [Example 233], for which the “log P” value in series [1] is given as 4.23. For the same molecule, the pE50 on C. elegans Slo-1a was 8.1.
In the same order, the values of `COc1c(F)cc(F)c(-c2c(C)nn3c(C(C)C)c(C(=O)N[C@H]4CCOc5ccccc54)cnc23)c1F` [Example 235] are 4.38 and 9.2.
With `Cc1nn2c(C(C)C)c(C(=O)N[C@H]3CCc4ccccc43)cnc2c1-c1cccc(C#N)c1` [Example 291], the chromatographic logP in series [1] stood at 4.31. Also, the 50% effective concentration (EC50) at C. elegans Slo-1a was 50.1 nM.
As to `Cc1nn2c(C(C)C)c(C(=O)N[C@H]3CCc4ccccc43)cnc2c1-c1cc(F)cc(C(F)(F)F)c1` [Example 292], the chromatographic logP in series [1] is 5.6. Also, the EC50 at C. elegans Slo-1a was 39.8 nM.
In the same order, the values of `Cc1nn2c(C(C)C)c(C(=O)N[C@H]3CCc4ccccc43)cnc2c1-c1ccc(C#N)c(C(F)(F)F)c1` [Example 293] are 4.97 and 316 nM.
In the same order, the values of `Cc1nn2c(C(C)C)c(C(=O)N[C@H]3CCc4ccccc43)cnc2c1-c1ccc(Cl)nc1` [Example 295] are 4.21 and 63.1 nM.
Taken in the same sequence, the figures for `Cc1nn2c(C(C)C)c(C(=O)N[C@H]3CCc4ccccc43)cnc2c1-c1cncnc1` [Example 296] were 2.99 and 7940 nM.
Turning to `Cc1nn2c(C(C)C)c(C(=O)N[C@H]3CCc4ccccc43)cnc2c1-c1cnn(C)c1` [Example 303], in series [1], the chromatographic logP turned out to be 3.13. Also, the concentration giving a half-maximal response (EC50) on C. elegans Slo-1a is 794 nM.
In the same order, the values of `COCc1c(C(=O)N[C@H]2CCc3ccccc32)cnc2c(-c3cccc(C(F)(F)F)c3)c(C)nn12` [Example 305] are 4.52 and 63.1 nM.
`CCc1c(C(=O)N[C@H]2CCc3ccccc32)cnc2c(-c3cccc(C(F)(F)F)c3)c(C)nn12` [Example 306] gave a chromatographic logP in series [1] of 4.86. The EC50 at C. elegans Slo-1a was 50.1 nM.
As for `Cc1nn2c(C(C)C)c(C(=O)N[C@H]3CCc4ccccc43)cnc2c1-c1cnn(CC(F)(F)F)c1` [Example 310], the log partition coefficient (log P) in series [1] is recorded as 3.81. Further, the pE50 at C. elegans Slo-1a is reported as 8.
For `Cc1nn2c(C(F)F)c(C(=O)N[C@H]3CCc4ccccc43)cnc2c1-c1cccc(C(F)(F)F)c1` [Example 311, (S)-7-(Difluoromethyl)-N-(2,3-dihydro-1H-inden-1-yl)-2-methyl-3-(3-(trifluoromethyl)-phenyl)-pyrazolo[1,5-a]pyrimidine-6-carboxamide], the chromatographic logP in series [1] is 4.36. The concentration for a half-maximal effect (EC50) at C. elegans Slo-1a is 200 nM.
Taken in the same sequence, the figures for `Cc1nn2c(C(C)C)c(C(=O)N[C@H]3CCc4ccccc43)cnc2c1-c1cccc(N2CCOCC2)c1` [Example 316] were 4.26 and 158 nM.
On to `Cc1nn2c(C(C)C)c(C(=O)N[C@H]3CCc4ccccc43)cnc2c1-c1ccncc1` [Example 318], for which, in series [1], the chromatographic logP amounted to 1.84. The EC50 at C. elegans Slo-1a was 1000 nM.
Regarding `CCOc1cccc(-c2c(C)nn3c(C(C)C)c(C(=O)N[C@H]4CCc5ccccc54)cnc23)c1` [Example 322], in series [1], the chromatographic logP is 4.94. The EC50 at C. elegans Slo-1a was 12.6 nM.
`Cc1nn2c(C(C)C)c(C(=O)N[C@H]3CCc4ccccc43)cnc2c1-c1ccc(N2CCOCC2)cc1` [Example 326] showed a chromatographic logP in series [1] of 4.2. On C. elegans Slo-1a, the EC50 was 1260 nM.
The molecule `Cc1nn2c(C(C)C)c(C(=O)N[C@H]3CCc4ccccc43)cnc2c1-c1cccc(-n2cccn2)c1` [Example 328] registered a chromatographic logP in series [1] of 4.4. The EC50 at C. elegans Slo-1a was 39.8 nM.
In turn, `COc1ccc(-c2c(C)nn3c(C(C)C)c(C(=O)N[C@H]4CCc5ccccc54)cnc23)cc1` [Example 333] came in with a chromatographic logP in series [1] of 4.43. The EC50 at C. elegans Slo-1a was 100 nM.
In the same order, the values of `Cc1nn2c(C(C)C)c(C(=O)N[C@H]3CCc4ccccc43)cnc2c1-c1ccc(OC(F)F)cc1` [Example 335] are 4.66 and 126 nM.
